Test results as given in ChEMBL document CHEMBL1127631, “Three-dimensional structure-activity analysis of a series of porphyrin derivatives with anti-HIV-1 activity targeted to the V3 loop of the gp120 envelope glycoprotein of the human immunodeficiency virus type 1” (J Med Chem, 1994).

Tested on: Human immunodeficiency virus 1
Test: Inhibition of HIV-1 P24 production.
Type: functional, organism-based
[1] = read-out: Log 1/EC50 (converted)

Compound | EC50 (Human immunodeficiency virus 1) | EC50 [1] | EC50
CC1=C(C(O)CO)c2cc3nc(cc4[nH]c(cc5[nH]c(cc1n2)c(C)c5CCC(=O)O)c(CCC(=O)O)c4C)C(C(O)CO)=C3C (stereo unspecified) | 54.4 µM | 55 µM | 
Cc1ccc(/C2=C3\C=CC(=N3)/C(c3ccc(C(=O)O)cc3)=c3/cc/c([nH]3)=C(\c3ccc(C)cc3)C3C=CC(N3)/C(c3ccc(C)cc3)=C3/C=CC2=N3)cc1 (stereo unspecified) | 14.7 µM | 14.8 µM | 
NC(=O)c1ccc(/C2=C3\C=CC(=N3)/C(c3ccc(C(N)=O)cc3)=c3/cc/c([nH]3)=C(\c3ccc(C(N)=O)cc3)C3C=CC(N3)/C(c3ccc(C(N)=O)cc3)=C3/C=CC2=N3)cc1 (stereo unspecified) | 1.07 µM | 1.07 µM | 
C=Cc1c(C)c2cc3[nH]c(cc4nc(cc5nc(cc1[nH]2)C(C)=C5CCC(=O)O)C(CCC(=O)O)=C4C)c(C)c3C(C)O (stereo unspecified) | 6.16 µM | 6.17 µM | 
C1=C/C2=C(\c3ccccc3)C3C=CC(N3)/C(c3ccccc3)=c3/cc/c([nH]3)=C(\c3ccccc3)C3=N/C(=C(/c4ccccc4)C1=N2)C=C3 (stereo unspecified) | 54.7 µM | 55 µM | 
CC1=C(CCC(=O)O)c2cc3[nH]c(cc4[nH]c(cc5nc(cc1n2)C(CCC(=O)O)=C5CC(=O)O)c(CCC(=O)O)c4C)c(CCC(=O)O)c3CC(=O)O | 20.7 µM | 20.9 µM | 
O=C(O)c1ccc(/C2=C3\C=CC(=N3)/C(c3ccccc3)=c3/cc/c([nH]3)=C(\c3ccc(C(=O)O)cc3)C3C=CC(N3)/C(c3ccc(C(=O)O)cc3)=C3/C=CC2=N3)cc1 (stereo unspecified) | 0.612 µM |  | 
CN1C2C=CC1/C(c1ccc(C(=O)O)cc1)=c1/cc/c([nH]1)=C(\c1ccc(C(=O)O)cc1)C1=N/C(=C(/c3ccc(C(=O)O)cc3)C3=N/C(=C\2c2ccc(C(=O)O)cc2)C=C3)C=C1 (stereo unspecified) | 0.774 µM | 1.29 µM | 
C=CC1=C(C)c2cc3nc(cc4[nH]c(cc5c(C=C)c(C)c(cc1n2)n5C)c(C)c4CCC(=O)O)C(CCC(=O)O)=C3C | 1.03 µM | 1.02 µM | 
O=C(O)c1ccc(/C2=C3\C=CC(=N3)/C(c3ccc(C(=O)O)cc3)=c3/cc/c([nH]3)=C(\c3ccc(C(=O)O)cc3)C3C=CC(N3)/C(c3ccc(C(=O)O)cc3)=C3/C=CC2=N3)cc1 (stereo unspecified) | 0.63 µM |  | 
CC1=C(CCC(=O)O)c2cc3[nH]c(cc4[nH]c(cc5nc(cc1n2)C(CCC(=O)O)=C5CC(=O)O)c(CCC(=O)O)c4CC(=O)O)c(CCC(=O)O)c3CC(=O)O | 10.7 µM | 10.7 µM | 
C=CC1=C(C)c2cc3[nH]c(cc4nc(cc5[nH]c(cc1n2)c(C)c5CCC(=O)O)C(CCC(=O)O)=C4C)c(C)c3C=C [PROTOPORPHYRIN] | 2.17 µM | 2.19 µM | 

Continued, values first:

EC50 (Human immunodeficiency virus 1) | EC50 [1] | EC50 | Compound
67.9 µM | 67.6 µM |  | C=Cc1c(C)c2cc3[nH]c(cc4nc(cc5nc(cc1[nH]2)C(C)=C5CCC(=O)OC)C(CCC(=O)OC)=C4C)c(C)c3C=C
0.758 µM | 1.32 µM |  | O=C(O)c1ccc(/C2=C3\C=CC(=N3)/C(c3ccc(Cl)cc3)=C3/C=CC(=N3)/C(c3ccc(C(=O)O)cc3)=c3/cc/c([nH]3)=C(\c3ccc(C(=O)O)cc3)C3C=CC2N3)cc1 (stereo unspecified)
5.59 µM | 5.62 µM |  | C=CC1=C(C)c2cc3nc(cc4[nH]c(cc5[nH]c(cc1n2)c(C)c5CO)c(C)c4CCC(=O)O)C(CCC(=O)O)=C3C
3.02 µM | 3.02 µM |  | O=C(O)CCC1=C(CC(=O)O)c2cc3nc(cc4[nH]c(cc5[nH]c(cc1n2)c(CCC(=O)O)c5CC(=O)O)c(CC(=O)O)c4CCC(=O)O)C(CC(=O)O)=C3CCC(=O)O
9.04 µM | 9.12 µM |  | O=C(O)CCC1=C(CC(=O)O)c2cc3nc(cc4[nH]c(cc5[nH]c(cc1n2)c(CC(=O)O)c5CCC(=O)O)c(CC(=O)O)c4CCC(=O)O)C(CC(=O)O)=C3CCC(=O)O
43.3 µM | 43.7 µM |  | CC1=C(CCC(=O)O)c2cc3nc(cc4[nH]c(cc5[nH]c(cc1n2)c(CCC(=O)O)c5CC(=O)O)c(CCC(=O)O)c4C)C(CCC(=O)O)=C3C
28.4 µM |  |  | O=C(O)C1=CC(=C(c2ccc(O)c(C(=O)O)c2)c2ccc(O)c(C(=O)O)c2)C=CC1=O [AURINTRICARBOXYLIC ACID]
 |  | 35.3 µM | HEMIN
